Measurements: patent publication US9399637B2, “Substituted heteroaryl compounds and methods of use” (Calitor Sciences, LLC, priority 2014, dated 2016)

How the values were obtained:
TYK2 (h) = target: T1, TYK2 (h) (Homo sapiens, UniProt P29597); experiment: TYK2 kinase assay; assay type: biochemical
T1 construct: purchased Millipore UK Ltd (assays run there as a service)
Experimental: (§1) Kinase assays can be performed by measurement of incorporation of γ-^33P ATP into immobilized myelin basic protein (MBP). High binding white 384 well plates (Greiner) are coated with MBP (Sigma #M-1891) by incubation of 60 μL/well of 20 μg/mL MBP in Tris-buffered saline (TBS; 50 mM Tris pH 8.0, 138 mM NaCl, 2.7 mM KCl) for 24 h at 4° C. Plates are washed 3× with 100 μL TBS. Kinase reactions are carried out in a total volume of 34 μL in kinase buffer (5 mM Hepes pH 7.6, 15 mM NaCl, 0.01% bovine gamma globulin (Sigma #I-5506), 10 mM MgCl2, 1 mM DTT, 0.02% TritonX-100). Compound dilutions are performed in DMSO and added to assay wells to a final DMSO concentration of 1%. Each data point is measured in duplicate, and at least two duplicate assays are performed for each individual compound determination. Enzyme is added to final concentrations of 10 nM or 20 nM, for example. A mixture of unlabeled ATP and γ-^33P ATP is added to start the reaction (2×10^6 cpm of γ-^33P ATP per well (3000 Ci/mmole) and 10 μM unlabeled ATP, typically. The reactions are carried out for 1 h at room temperature with shaking Plates are washed 7× with TBS, followed by the addition of 50 μL/well scintillation fluid (Wallac). Plates are read using a Wallac Trilux counter. This is only one format of such assays; various other formats are possible, as known to one skilled in the art. […]

Aurora-A (h) = target: T2, Aurora-A (h) (Homo sapiens, UniProt O14965); experiment: Aurora-A kinase assay; assay type: biochemical
T2 construct: purchased Millipore UK Ltd (assays run there as a service)
T2 sequence (O14965 1-403): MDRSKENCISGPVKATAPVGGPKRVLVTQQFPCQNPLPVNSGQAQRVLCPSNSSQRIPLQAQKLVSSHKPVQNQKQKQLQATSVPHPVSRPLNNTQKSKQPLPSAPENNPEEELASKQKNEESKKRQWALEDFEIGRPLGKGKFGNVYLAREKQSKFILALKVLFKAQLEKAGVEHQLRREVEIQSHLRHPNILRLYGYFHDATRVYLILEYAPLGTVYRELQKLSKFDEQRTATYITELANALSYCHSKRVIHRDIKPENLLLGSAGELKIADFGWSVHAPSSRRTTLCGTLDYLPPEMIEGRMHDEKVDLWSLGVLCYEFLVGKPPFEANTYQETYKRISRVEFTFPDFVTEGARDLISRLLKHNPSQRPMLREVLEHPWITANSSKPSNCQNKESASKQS
Experimental: as §1

T1 sequence (P29597 whole entry): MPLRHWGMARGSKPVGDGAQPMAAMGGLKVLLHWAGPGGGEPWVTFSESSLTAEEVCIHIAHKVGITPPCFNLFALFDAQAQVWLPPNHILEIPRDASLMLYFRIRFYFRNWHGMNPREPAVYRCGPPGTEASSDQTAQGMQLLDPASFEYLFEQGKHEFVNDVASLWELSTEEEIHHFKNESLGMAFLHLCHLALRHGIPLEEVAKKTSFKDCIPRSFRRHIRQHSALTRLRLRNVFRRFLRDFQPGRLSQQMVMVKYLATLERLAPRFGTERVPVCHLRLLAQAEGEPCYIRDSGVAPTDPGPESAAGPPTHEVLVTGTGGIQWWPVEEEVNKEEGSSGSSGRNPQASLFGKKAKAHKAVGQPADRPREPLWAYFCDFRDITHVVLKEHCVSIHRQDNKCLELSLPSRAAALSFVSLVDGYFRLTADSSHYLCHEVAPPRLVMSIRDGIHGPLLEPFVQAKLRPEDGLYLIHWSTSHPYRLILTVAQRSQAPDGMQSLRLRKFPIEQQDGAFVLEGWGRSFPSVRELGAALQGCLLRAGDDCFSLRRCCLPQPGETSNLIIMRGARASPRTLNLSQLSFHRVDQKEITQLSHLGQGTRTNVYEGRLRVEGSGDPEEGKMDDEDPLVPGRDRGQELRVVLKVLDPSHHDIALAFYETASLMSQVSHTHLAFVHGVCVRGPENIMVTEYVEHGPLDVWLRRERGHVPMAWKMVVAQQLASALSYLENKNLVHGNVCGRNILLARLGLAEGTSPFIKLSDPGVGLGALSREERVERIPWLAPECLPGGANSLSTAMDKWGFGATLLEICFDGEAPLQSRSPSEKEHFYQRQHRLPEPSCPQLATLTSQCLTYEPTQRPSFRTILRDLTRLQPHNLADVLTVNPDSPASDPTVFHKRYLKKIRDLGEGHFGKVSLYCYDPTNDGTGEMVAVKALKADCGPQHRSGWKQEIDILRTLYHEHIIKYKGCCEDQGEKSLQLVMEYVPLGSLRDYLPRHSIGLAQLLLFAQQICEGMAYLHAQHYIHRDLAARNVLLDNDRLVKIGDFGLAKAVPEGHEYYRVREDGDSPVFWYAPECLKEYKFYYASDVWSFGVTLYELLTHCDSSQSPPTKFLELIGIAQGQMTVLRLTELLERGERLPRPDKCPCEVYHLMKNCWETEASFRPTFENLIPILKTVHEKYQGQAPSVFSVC

- IC50 (TYK2 (h)): 20 nM
- IC50 (Aurora-A (h)): 104 nM
Compound: Cc1c2ccc(Nc3ncc(Cl)c(NC4CC5CN(C(=O)CC#N)CC5C4)n3)cc2nn1C (centres unmarked) [Ex. 4, 3-(5-((5-chloro-2-((2,3-dimethyl-2H-indazol-6-yl)amino)pyrimidin-4-yl)amino)hexahydrocyclopenta[c]pyrrol-2(1H)-yl)-3-oxopropanenitrile]
